The record followed here is ChEMBL document CHEMBL5154831 (J Med Chem, 2022).

Series [1] in a line: Toxicity in wild type mouse assessed as effect on kidney size. The settings on record: in vivo.
The nature of series [2]: Toxicity in wild type mouse assessed as effect on body weight. The settings on record: in vivo.
Series [3] in a line: Elimination rate constant in C57BL/6 mouse at 2 mg/kg, sc by LC-MS analysis. The class given is ADME, organism-based. The note with it: in vivo.
Series [4] is described as follows: Half life in C57BL/6 mouse at 2 mg/kg, sc by LC-MS analysis. It counts as ADME, organism-based. The settings on record: in vivo.
Series [5] in a line: Tmax in C57BL/6 mouse at 2 mg/kg, sc by LC-MS analysis. It counts as ADME, organism-based. The note with it: in vivo.
The nature of series [6]: Cmax in C57BL/6 mouse at 2 mg/kg, sc by LC-MS analysis. The note with it: in vivo. Also noted: dose 2 mg/kg, route sc. It counts as ADME, organism-based.
Series [7] in a line: AUC (0 to t) in C57BL/6 mouse at 2 mg/kg, sc by LC-MS analysis. It counts as ADME, organism-based. Details: dose 2 mg/kg, route sc. The settings on record: in vivo.
Series [8] can be described thus: Equilibrium solubility of compound in water incubated for 24 hrs by UV-spectroscopy method. The class given is physicochemical.
In series [9] the target is Vasopressin V2 receptor (Rattus norvegicus) (UniProt Q00788). Nature of the series: Ex vivo receptor occupancy at V2R in isolated perfused Sprague-Dawley rat kidney assessed as dissociation half life at 0.1 uM incubated for 30 mins by LC-MS analysis. It counts as functional, tissue-based.
Vasopressin V2 receptor (Rattus norvegicus), sequence (Q00788 whole entry, the tested form may be a part): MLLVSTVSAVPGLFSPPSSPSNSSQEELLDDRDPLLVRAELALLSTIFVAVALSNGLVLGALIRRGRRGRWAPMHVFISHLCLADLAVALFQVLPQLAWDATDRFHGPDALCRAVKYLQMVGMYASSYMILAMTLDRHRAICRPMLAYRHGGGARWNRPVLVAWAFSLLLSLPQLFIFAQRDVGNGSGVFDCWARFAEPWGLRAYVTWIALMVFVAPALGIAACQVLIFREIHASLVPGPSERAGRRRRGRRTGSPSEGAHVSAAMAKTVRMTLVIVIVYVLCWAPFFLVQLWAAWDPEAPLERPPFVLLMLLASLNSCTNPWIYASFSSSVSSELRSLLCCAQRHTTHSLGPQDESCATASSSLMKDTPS
Series [10] in a line: Toxicity in wild type mouse assessed as effect on body weight at 2 mg/kg. The class given is organism-based. The settings on record: in vivo.
Series [11] has as its target Vasopressin V2 receptor (Homo sapiens, UniProt P30518). Description: Displacement of conivaptan-red from SNAP-tagged V2 receptor (unknown origin) expressed in HEK293 cells assessed as inhibition constant measured after 2 hrs by HTRF assay. The class given is cell-based.

SMILES strings stand for the structures. Converted amounts (≈) assume the structure as drawn.

Vasopressin V2 receptor, sequence (P30518 whole entry): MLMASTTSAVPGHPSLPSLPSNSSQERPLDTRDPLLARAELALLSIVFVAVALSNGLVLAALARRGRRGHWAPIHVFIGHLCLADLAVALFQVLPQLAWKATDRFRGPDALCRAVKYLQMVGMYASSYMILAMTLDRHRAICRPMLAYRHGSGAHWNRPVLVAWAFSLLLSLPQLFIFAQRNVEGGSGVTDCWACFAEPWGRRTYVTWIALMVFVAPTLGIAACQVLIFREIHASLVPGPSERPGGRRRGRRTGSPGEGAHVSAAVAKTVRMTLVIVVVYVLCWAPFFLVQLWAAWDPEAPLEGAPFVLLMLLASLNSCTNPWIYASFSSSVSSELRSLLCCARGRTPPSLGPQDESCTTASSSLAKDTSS

For `Cc1ccccc1C(=O)Nc1ccc(C(=O)N2CCCC(NCCCN3CCN(C)CC3)c3cc(Cl)ccc32)c(C)c1` (stereo not drawn), the Activity entry in series [1] and in [2] was “Non-Toxic” throughout. In series [3], this compound showed a k el of 2.75e-05 s⁻¹. This compound gave a half-life in [4] of 420 min. Also, the Tmax in series [5] is 4.98 min. The same compound had a Cmax in series [6] of 518 ng/mL. The same compound yielded an AUC(0-t) in series [7] of 588 ng·h/mL. This compound returned a thermodynamic solubility at 24 h in [8] of 2.3 µg/mL (≈ 3.91 µM).

`Cc1ccccc1C(=O)Nc1ccc(C(=O)N2CCCC(NCCCN3CCCCC3)c3cc(Cl)ccc32)c(C)c1` (stereo not drawn): the Activity result in series [1] and in [2] was “Non-Toxic” each time. Also, the k el in [3] is 5e-05 s⁻¹. The same compound had a half-life in [4] of 234 min. For the same compound, in series [5], the Tmax turned out to be 19.8 min. Moreover, in series [6], the Cmax stood at 419 ng/mL. The compound further yielded an AUC(0-t) in series [7] of 1110 ng·h/mL. Moreover, in series [8], the thermodynamic solubility at 24 h turned out to be 2.3 µg/mL (≈ 4.01 µM).

Consider `Cc1ccccc1C(=O)Nc1ccc(C(=O)N2CCCC(NCCCc3ccncc3)c3cc(Cl)ccc32)c(C)c1` (stereo not drawn), for which the Activity entry in series [1] and in series [2] was “Non-Toxic” in each case. The k el in series [3] is 0.000361 s⁻¹. Further, in series [4], the half-life was 32 min. Besides, the Tmax in series [5] was found to be 16.7 min. For the same compound, in series [6], the concentration peaked (Cmax) at 360 ng/mL. The same compound returned an AUC(0-t) in [7] of 565 ng·h/mL. The solubility (thermodynamic) at 24 h in series [8] was 2.3 µg/mL (≈ 4.06 µM).

Consider `Cc1ccccc1C(=O)Nc1ccc(C(=O)N2CCCC(NCCCCN3CCOCC3)c3cc(Cl)ccc32)c(C)c1` (stereo not drawn), for which the Activity result in [1] and in series [2] was “Non-Toxic” in each case. In series [3], the k el was 3.89e-05 s⁻¹. In series [4], the half-life is 324 min. The Tmax in series [5] was determined as 4.98 min. In series [6], this compound gave a Cmax of 365 ng/mL. In addition, the AUC(0-t) in series [7] was found to be 514 ng·h/mL. This compound also registered a thermodynamic solubility at 24 h in [8] of 2.3 µg/mL (≈ 3.9 µM).

For `Cc1ccccc1C(=O)Nc1ccc(C(=O)N2CCCC(NCCC(=O)N3CCOCC3)c3cc(Cl)ccc32)c(C)c1` (stereo not drawn), the Activity entry in series [1] and in [2] was “Non-Toxic” in each case. The compound further had a k el in series [3] of 0.000667 s⁻¹. The same compound had a half-life in series [4] of 17.4 min. The Tmax in series [5] is 8.4 min. The Cmax in series [6] is 783 ng/mL. The AUC(0-t) in series [7] was 450 ng·h/mL. Also, the thermodynamic solubility at 24 h in series [8] was found to be 2.3 µg/mL (≈ 3.9 µM).

As for `Cc1ccccc1C(=O)Nc1ccc(C(=O)N2CCCC(O)c3cc(Cl)ccc32)c(C)c1` (stereo not drawn) [TOLVAPTAN], the T1/2 in series [9] turned out to be 23 min. Moreover, the Activity entry in [1] and in series [2] was “Non-Toxic” each time. Also, the k el in series [3] was 4.72e-05 s⁻¹. This compound had a half-life in series [4] of 246 min. The time to peak (Tmax) in series [5] was determined as 49.8 min. Besides, the peak level in series [6] (Cmax) was 394 ng/mL. In [7], this compound came in with an AUC(0-t) of 824 ng·h/mL. Also, the thermodynamic solubility at 24 h in series [8] turned out to be 2.3 µg/mL (≈ 5.12 µM).

For the compound `Cc1ccccc1C(=O)Nc1ccc(C(=O)N2CCCC(NCCCN3CCOCC3)c3cc(Cl)ccc32)c(C)c1` (stereo not drawn), the Activity entry in series [1], in series [2] and in series [10] was “Non-Toxic” throughout. In series [3], this compound gave a k el of 4.72e-05 s⁻¹. The compound also showed a half-life in series [4] of 258 min. In series [5], the Tmax is 15 min. The peak level in [6] (Cmax) was 453 ng/mL. The compound also displayed an AUC(0-t) in series [7] of 817 ng·h/mL. The thermodynamic solubility at 24 h in series [8] came to 2.3 µg/mL (≈ 4 µM).

For the compound `CCN(CC)CCCNC1CCCN(C(=O)c2ccc(NC(=O)c3ccccc3C)cc2C)c2ccc(Cl)cc21` (stereo not drawn), the Ki in series [11] is 31 nM. Further, the Activity entry in [1] and in series [2] was “Non-Toxic” in each case. The k el in series [3] is 8.33e-05 s⁻¹. In series [4], this compound had a half-life of 174 min. Also, in series [5], the Tmax is 11.4 min. Further, the highest level in series [6] (Cmax) was 426 ng/mL. For the same compound, the AUC(0-t) in series [7] was 527 ng·h/mL. This compound also came in with a solubility (thermodynamic) at 24 h in series [8] of 2.3 µg/mL (≈ 4.1 µM).

Consider `Cc1ccccc1C(=O)Nc1ccc(C(=O)N2CCCC(NCCCCCN3CCOCC3)c3cc(Cl)ccc32)c(C)c1` (stereo not drawn), for which the Activity result in [1] and in series [2] was “Non-Toxic” each time. The compound also showed a k el in series [3] of 2.58e-05 s⁻¹. In [4], this compound showed a half-life of 450 min. In [5], the Tmax turned out to be 8.4 min. In series [6], the Cmax was 157 ng/mL. Moreover, in series [7], the AUC(0-t) was 450 ng·h/mL. In addition, in series [8], the thermodynamic solubility at 24 h is 2.3 µg/mL (≈ 3.81 µM).

Turning to `Cc1ccccc1C(=O)Nc1ccc(C(=O)N2CCCC(NCCN3CCOCC3)c3cc(Cl)ccc32)c(C)c1` (stereo not drawn), the Activity result in series [1] and in [2] was “Non-Toxic” throughout. This compound also had a k el in series [3] of 0.000417 s⁻¹. In series [4], this compound showed a half-life of 28.2 min. The time to peak (Tmax) in series [5] amounted to 4.98 min. The Cmax in series [6] stood at 679 ng/mL. In series [7], this compound came in with an AUC(0-t) of 544 ng·h/mL. This compound returned a solubility (thermodynamic) at 24 h in series [8] of 2.3 µg/mL (≈ 4.1 µM).

As a reminder, the half-life is the time needed for the level to fall by half in the phase considered. A higher half-life goes with slow loss. A word on the Tmax: it is the time from dosing to the highest level. By Cmax is commonly meant the peak of the concentration-time curve. One may read the AUC(0-t) as the area under the concentration-time curve up to a stated or last time point. A high value points to high exposure. By thermodynamic solubility is commonly meant the concentration in solution at equilibrium with solid. As a reminder, the Ki is the equilibrium dissociation constant of an inhibitor or competing ligand from its target.
